Read-outs that look alike come from different tables or passages of the source.
Columns and labels:
[1] = in vitro; type: cell-based; settings: human, HepG2 or HepG2.117 cells, ATPlite, mean value
Method in brief: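 Luminescent ATP quantitation served as the viability endpoint following a 3- or 4-day incubation with test compounds.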

[2] = test system: HBV (HepG2.117 cell line, inducibly HBV producing); test: Anti-HBV activity: intracellular HBV DNA by real-time PCR in HepG2.117 cells after 3 days of treatment; type: cell-based, hepatitis B virus
Method in brief: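 HepG2.117 cells (Tet-off, inducible HBV production) were induced to replicate HBV by doxycycline absence, then treated with serially diluted compound for 3 days. Activity was quantified as intracellular HBV DNA by real-time PCR using an HBV-specific primer set and probe.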

[3] = 3-days incubation (not marked with *)
[4] = Hepatitis B virus, HepG2.117, 72 h, HepG2.117 cells, intracellular HBV DNA by real-time PCR, 3 days of treatment, mean value; read-out: EC50 (μM, mean value)
[5] = 3-days incubation (unmarked values)
[6] = Hepatitis B virus, HepG2.117, 72 h, HepG2.117 cells, 3 days of treatment, intracellular HBV DNA by real-time PCR; mean value; read-out: EC50 (μM, mean value)

SMILES	CC50 at 3 days [1, 3]	EC50 [2, 4]	CC50 at 3 days [1, 5]	EC50 [2, 6]	CC50 at 4 days ([1]; 4-days incubation (values marked with *))
CNC(=O)c1ccc(-n2c(N[C@@H](C)c3ccc(C(F)(F)F)c(Cl)c3)nc3c(c2=O)C[C@@H](C)N(C(=O)c2ccc(Cl)c(Cl)c2)C3)cc1 (single isomer, unassigned) [Compound C664b]	> 50 µM	> 2.5 µM			
CNC(=O)c1ccc(-n2c(NCc3ccc4[nH]ccc4c3)nc3c(c2=O)C[C@@H](C)N(C(=O)c2ccc(Cl)c(Cl)c2)C3)cc1 [Compound C284, 4-[(6R)-7-(3,4-dichlorobenzoyl)-2-{[(1H-indol-5-yl)methyl]amino}-6-methyl-4-oxo-5,6,7,8-tetrahydropyrido[3,4-d]pyrimidin-3(4H)-yl]-N-methylbenzamide]			> 50 µM	0.13 µM	
CNC(=O)C12C3C4C1C1C2C3C41n1c(NC(C)C)nc2c(c1=O)C[C@@H](C)N(C(=O)c1ccc(Cl)c(Cl)c1)C2 (some centres unmarked) [Compound C456]	> 50 µM	0.4 µM			
COc1ccccc1-n1c(N[C@@H](C)C(F)(F)F)nc2c(c1=O)CCN(C(=O)c1ccc(Cl)c(Cl)c1)C2 [Compound C86, 7-(3,4-dichlorobenzoyl)-3-(2-methoxyphenyl)-2-{[(2S)-1,1,1-trifluoropropan-2-yl]amino}-5,6,7,8-tetrahydropyrido[3,4-d]pyrimidin-4(3H)-one]			25.2 µM	1.44 µM	
CNC(=O)c1ccc(-n2c(NC(C)Cc3c[nH]c4ccc(F)cc34)nc3c(c2=O)C[C@@H](C)N(C(=O)c2ccc(Cl)c(Cl)c2)C3)cc1 (some centres unmarked) [Compound C548]	10.3 µM	0.58 µM			
COCCn1c(NCc2ccc(OC)cc2)nc2c(c1=O)CCN(C(=O)c1ccc(Cl)c(Cl)c1)C2 [Compound C51, 7-(3,4-dichlorobenzoyl)-3-(2-methoxyethyl)-2-{[(4-methoxyphenyl)methyl]amino}-5,6,7,8-tetrahydropyrido[3,4-d]pyrimidin-4(3H)-one]			36.6 µM	4.35 µM	
COc1ccccc1-n1c(NCc2ccc(C(F)(F)F)cc2)nc2c(c1=O)CCN(C(=O)c1ccc(Cl)c(Cl)c1)C2 [Compound C23, 7-(3,4-dichlorobenzoyl)-3-(2-methoxyphenyl)-2-({[4-(trifluoromethyl)phenyl]methyl}amino)-5,6,7,8-tetrahydropyrido[3,4-d]pyrimidin-4(3H)-one]				2.56 µM	> 50 µM
CC[C@@H](C)Nc1nc2c(c(=O)n1-c1ccc(C(=O)NC)cc1)C[C@@H](C)N(C(=O)c1ccc(Cl)c(Cl)c1)C2 [Compound C258, 4-[(6R)-2-{[(2R)-butan-2-yl]amino}-7-(3,4-dichlorobenzoyl)-6-methyl-4-oxo-5,6,7,8-tetrahydropyrido[3,4-d]pyrimidin-3(4H)-yl]-N-methylbenzamide]			> 50 µM	0.05 µM	
CNC(=O)c1ccc(-n2c(NC(C)C)nc3c(c2=O)C[C@@H](C)N(C(=O)c2cc(F)c(Br)cc2F)C3)cc1 [Compound C574]	> 50 µM	0.73 µM			
CC(C)Nc1nc2c(c(=O)n1-c1ccc(S(C)(=O)=O)cc1)CCN(C(=O)c1ccc3ocnc3c1)C2 [Compound C364]			> 50 µM	> 7.2 µM	
CC(C)Nc1nc2c(c(=O)n1-c1ccc(S(C)(=O)=O)cc1)CCN(C(=O)c1ccc3sccc3c1)C2 [Compound C164, 7-(1-benzothiophene-5-carbonyl)-3-[4-(methanesulfonyl)phenyl]-2-[(propan-2-yl)amino]-5,6,7,8-tetrahydropyrido[3,4-d]pyrimidin-4(3H)-one]			> 50 µM	0.24 µM	
COc1ccc(CNc2nc3c(c(=O)n2-c2ccccc2F)CCN(C(=O)c2ccc(Cl)c(Cl)c2)C3)cc1 [Compound C14, 7-(3,4-dichlorobenzoyl)-3-(2-fluorophenyl)-2-{[(4-methoxyphenyl)methyl]amino}-5,6,7,8-tetrahydropyrido[3,4-d]pyrimidin-4(3H)-one]			> 50 µM	1 µM	
CNC(=O)c1ccc(-n2c(N[C@@H](C)c3nc[nH]n3)nc3c(c2=O)C[C@@H](C)N(C(=O)c2ccc(Cl)c(Cl)c2)C3)cc1 (single isomer, unassigned) [Compound C439b]	> 50 µM	> 10 µM			

From US20230091047A1 (priority 2019, published 2023)
